Experiments:
[1] = test system: IL-2 MALT1-dependent release in Jurkat cells; assay: cells; format: cell-based; settings: Homo sapiens; for EC50: Jurkat cells stimulated with antiCD3/antiCD28 for 24 h, IL-2 ELISA, read-out: EC50, IL-2 MALT1-dependent release inhibition; for CC50: Jurkat, 24 h, read-out: CC50 (IL-2 MALT1-dependent release inhibition)
Procedure: Jurkat cells (ATCC, USA) (100,000 cells/well in a 96 well flat-bottom plate (Greiner, #655061) were cultured in RPMI 1640 supplemented with 10% FBS at 37° C., 5% CO2 in a humidified cell culture incubator for 0.5-1 h. Then 10 μl/well 15× compound (or DMSO) was added in duplicates. Cells were incubated with compound in a humidified cell culture incubator for 0.5-1 h. After the incubation, 10 μl/well of 15× human antiCD3 HIT3a antibody (BioLegend) together with 10 μl/well of 15× human antiCD28 antibody (Invitrogen) were added to stimulate Jurkat cells for 24 h. After 24 h of stimulation, supernatants were collected and IL-2 levels in supernatants were assessed using IL-2 ELISA kit (Vector-Best, Russia).

MALT1 = MALT1 (Homo sapiens (Human), UniProt Q9UDY8); assay: MALT1 enzymatic activity inhibition (fluorescence, Ac-LRSR-AMC substrate); format: biochemical; settings: recombinant MALT1 1.5 ng/μl, Ac-LRSR-AMC 1 μM
Sequence of MALT1 (Q9UDY8 whole entry): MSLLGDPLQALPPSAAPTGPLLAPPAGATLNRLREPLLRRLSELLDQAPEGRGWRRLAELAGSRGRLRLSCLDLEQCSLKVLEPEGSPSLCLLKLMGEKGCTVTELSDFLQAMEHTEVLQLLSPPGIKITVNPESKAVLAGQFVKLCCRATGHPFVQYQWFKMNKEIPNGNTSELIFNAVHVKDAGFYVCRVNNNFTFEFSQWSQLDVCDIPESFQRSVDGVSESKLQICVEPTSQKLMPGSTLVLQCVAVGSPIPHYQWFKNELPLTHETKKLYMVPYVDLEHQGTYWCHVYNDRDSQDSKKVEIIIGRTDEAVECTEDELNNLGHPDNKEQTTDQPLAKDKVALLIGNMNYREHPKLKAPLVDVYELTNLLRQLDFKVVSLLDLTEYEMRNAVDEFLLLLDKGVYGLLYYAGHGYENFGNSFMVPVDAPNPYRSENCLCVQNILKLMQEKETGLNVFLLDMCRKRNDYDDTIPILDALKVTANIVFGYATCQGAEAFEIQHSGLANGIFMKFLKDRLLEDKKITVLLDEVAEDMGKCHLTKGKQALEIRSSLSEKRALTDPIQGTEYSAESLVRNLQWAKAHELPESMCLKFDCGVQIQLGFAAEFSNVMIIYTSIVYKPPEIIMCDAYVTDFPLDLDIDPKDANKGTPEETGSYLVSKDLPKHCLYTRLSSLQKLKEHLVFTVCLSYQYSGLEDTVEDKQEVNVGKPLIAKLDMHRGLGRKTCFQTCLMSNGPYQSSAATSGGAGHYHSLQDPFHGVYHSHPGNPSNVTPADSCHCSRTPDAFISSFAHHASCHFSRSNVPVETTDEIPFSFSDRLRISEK
Procedure, shortened: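 Recombinant human MALT1 (1.5 ng/μl final) preincubated 10 min at rt with compounds in 50 mM HEPES pH 7.2-7.4, 100 mM NaCl, 900 mM sodium citrate, 10 mM DTT; 1 μM Ac-LRSR-AMC then added. AMC fluorescence read at start and after 30 min 37 °C plus 30 min rt; difference gives signal, % inhibition fitted to IC50.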

EC50 [1] [nM]	EC50 (MALT1) [µM]	Structure (SMILES)	CC50 [1] [nM]
1000 to 5000	≤ 0.2	Cc1cc(NC(=O)Nc2cnc3ccnn3c2C2CCCC2)cnc1-c1noc(CCCCCN2CCN(c3ccc4c(c3)CN(C3CCC(=O)N(COC(=O)C(C)(C)C)C3=O)C4=O)CC2)n1 (stereo not drawn) [Compound 88, [3-[5-[4-[5-[3-[5-[(7-cyclopentylpyrazolo[1,5-a]pyrimidin-6-yl)carbamoylamino]-3-methyl-2-pyridyl]-1,2,4-oxadiazol-5-yl]pentyl]piperazin-1-yl]-1-oxo-isoindolin-2-yl]-2,6-dioxo-1-piperidyl]methyl 2,2-dimethylpropanoate]	
< 500	≤ 0.2	Cc1cc(NC(=O)Nc2cnc3ccnn3c2C(C)C)cnc1-c1noc(CCCC(=O)N2CCN(c3ccc4c(c3)CN(C3CCC(=O)NC3=O)C4=O)CC2)n1 (stereo not drawn) [Compound 89, 1-[6-[5-[4-[4-[2-(2,6-dioxo-3-piperidyl)-1-oxo-isoindolin-5-yl]piperazin-1-yl]-4-oxo-butyl]-1,2,4-oxadiazol-3-yl]-5-methyl-3-pyridyl]-3-(7-isopropylpyrazolo[1,5-a]pyrimidin-6-yl)urea]	
500 to 1000	≤ 0.2	Cc1cc(NC(=O)Nc2cnc3ccnn3c2C(C)C)cnc1-c1noc(CCCCCC(=O)N2CCN(c3ccc4c(c3)CN(C3CCC(=O)NC3=O)C4=O)CC2)n1 (stereo not drawn) [Compound 91, 1-[6-[5-[6-[4-[2-(2,6-dioxo-3-piperidyl)-1-oxo-isoindolin-5-yl]piperazin-1-yl]-6-oxo-hexyl]-1,2,4-oxadiazol-3-yl]-5-methyl-3-pyridyl]-3-(7-isopropylpyrazolo[1,5-a]pyrimidin-6-yl)urea]	
< 500	≤ 0.2	Cc1cc(NC(=O)Nc2cnc3ccnn3c2C(C)C)cnc1-c1noc(CCCCCCN2CCN(c3ccc4c(c3)CN(C3CCC(=O)NC3=O)C4=O)CC2)n1 (stereo not drawn) [Compound 92, 1-[6-[5-[6-[4-[2-(2,6-dioxo-3-piperidyl)-1-oxo-isoindolin-5-yl]piperazin-1-yl]hexyl]-1,2,4-oxadiazol-3-yl]-5-methyl-3-pyridyl]-3-(7-isopropylpyrazolo[1,5-a]pyrimidin-6-yl)urea]	
< 500	≤ 0.2	CC(C)c1c(NC(=O)Nc2cnc(-c3noc(CCCCCCN4CCN(c5ccc6c(c5)CN(C5CCC(=O)NC5=O)C6=O)CC4)n3)c(Cl)c2)cnc2ccnn12 (stereo not drawn) [Compound 93, 1-[5-chloro-6-[5-[6-[4-[2-(2,6-dioxo-3-piperidyl)-1-oxo-isoindolin-5-yl]piperazin-1-yl]hexyl]-1,2,4-oxadiazol-3-yl]-3-pyridyl]-3-(7-isopropylpyrazolo[1,5-a]pyrimidin-6-yl)urea]	
< 500	≤ 0.2	O=C1CCC(N2Cc3cc(N4CCN(C(=O)CCCCc5nc(-c6ncc(NC(=O)Nc7cnc8ccnn8c7C7CCCC7)cc6C(F)(F)F)no5)CC4)ccc3C2=O)C(=O)N1 (stereo not drawn) [Compound 96, 1-(7-cyclopentylpyrazolo[1,5-a]pyrimidin-6-yl)-3-[6-[5-[5-[4-[2-(2,6-dioxo-3-piperidyl)-1-oxo-isoindolin-5-yl]piperazin-1-yl]-5-oxo-pentyl]-1,2,4-oxadiazol-3-yl]-5-(trifluoromethyl)-3-pyridyl]urea]	
< 500	≤ 0.2	O=C1CCC(N2Cc3cc(N4CCN(C(=O)CCCCCc5nc(-c6ncc(NC(=O)Nc7cnc8ccnn8c7C7CCCC7)cc6C(F)(F)F)no5)CC4)ccc3C2=O)C(=O)N1 (stereo not drawn) [Compound 104, 1-(7-cyclopentylpyrazolo[1,5-a]pyrimidin-6-yl)-3-[6-[5-[6-[4-[2-(2,6-dioxo-3-piperidyl)-1-oxo-isoindolin-5-yl]piperazin-1-yl]-6-oxo-hexyl]-1,2,4-oxadiazol-3-yl]-5-(trifluoromethyl)-3-pyridyl]urea]	
< 500	≤ 0.2	O=C1CCC(N2Cc3cc(N4CCN(C(=O)CCCc5nc(-c6ncc(NC(=O)Nc7cnc8ccnn8c7C7CCCC7)cc6C(F)(F)F)no5)CC4)ccc3C2=O)C(=O)N1 (stereo not drawn) [Compound 106, 1-(7-cyclopentylpyrazolo[1,5-a]pyrimidin-6-yl)-3-[6-[5-[4-[4-[2-(2,6-dioxo-3-piperidyl)-1-oxo-isoindolin-5-yl]piperazin-1-yl]-4-oxo-butyl]-1,2,4-oxadiazol-3-yl]-5-(trifluoromethyl)-3-pyridyl]urea]	
1000 to 5000	≤ 0.2	Cc1cc(NC(=O)Nc2cnc3ccnn3c2C2CCCCC2)cnc1-c1noc(CCCCCC(=O)N2CCN(c3ccc4c(c3)CN(C3CCC(=O)NC3=O)C4=O)CC2)n1 (stereo not drawn) [Compound 107, 1-(7-cyclohexylpyrazolo[1,5-a]pyrimidin-6-yl)-3-[6-[5-[6-[4-[2-(2,6-dioxo-3-piperidyl)-1-oxo-isoindolin-5-yl]piperazin-1-yl]-6-oxo-hexyl]-1,2,4-oxadiazol-3-yl]-5-methyl-3-pyridyl]urea]	
< 500	≤ 0.2	O=C1CCC(N2Cc3cc(N4CCN(CCCCCc5nc(-c6ncc(NC(=O)Nc7cnc8ccnn8c7C7CCCC7)cc6C(F)(F)F)no5)CC4)ccc3C2=O)C(=O)N1 (stereo not drawn) [Compound 108, 1-(7-cyclopentylpyrazolo[1,5-a]pyrimidin-6-yl)-3-[6-[5-[5-[4-[2-(2,6-dioxo-3-piperidyl)-1-oxo-isoindolin-5-yl]piperazin-1-yl]pentyl]-1,2,4-oxadiazol-3-yl]-5-(trifluoromethyl)-3-pyridyl]urea]	
	0.2 to 0.5	Cc1cc(NC(=O)Nc2cnc3ccnn3c2C2CCCCC2)cnc1-c1noc(CCCCCC(=O)Nc2ccc3c(c2)CN(C2CCC(=O)NC2=O)C3=O)n1 (stereo not drawn) [Compound 109, 6-[3-[5-[(7-cyclohexylpyrazolo[1,5-a]pyrimidin-6-yl)carbamoylamino]-3-methyl-2-pyridyl]-1,2,4-oxadiazol-5-yl]-N-[2-(2,6-dioxo-3-piperidyl)-1-oxo-isoindolin-5-yl]hexanamide]	< 500
	1 to 5	CC(C)c1c(NC(=O)Nc2ccc(-c3nnc(CCCCCC(=O)N4CCN(c5ccc6c(c5)CN(C5CCC(=O)NC5=O)C6=O)CC4)o3)nc2)cnc2ccnn12 (stereo not drawn) [Compound 110, 1-[6-[5-[6-[4-[2-(2,6-dioxo-3-piperidyl)-1-oxo-isoindolin-5-yl]piperazin-1-yl]-6-oxo-hexyl]-1,3,4-oxadiazol-2-yl]-3-pyridyl]-3-(7-isopropylpyrazolo[1,5-a]pyrimidin-6-yl)urea]	> 5000
	1 to 5	O=C1CCC(N2Cc3cc(N4CCN(C(=O)CCCCCc5nnc(-c6ccc(NC(=O)Nc7cnc8ccnn8c7C7CCCC7)cn6)o5)CC4)ccc3C2=O)C(=O)N1 (stereo not drawn) [Compound 111, 1-(7-cyclopentylpyrazolo[1,5-a]pyrimidin-6-yl)-3-[6-[5-[6-[4-[2-(2,6-dioxo-3-piperidyl)-1-oxo-isoindolin-5-yl]piperazin-1-yl]-6-oxo-hexyl]-1,3,4-oxadiazol-2-yl]-3-pyridyl]urea]	> 5000
	≤ 0.2	Cc1cc(NC(=O)Nc2cnc3ccnn3c2C2CCC2)cnc1-c1noc(CCCCC(=O)N2CCN(c3ccc4c(c3)CN(C3CCC(=O)NC3=O)C4=O)CC2)n1 (stereo not drawn) [Compound 112, 1-(7-cyclobutylpyrazolo[1,5-a]pyrimidin-6-yl)-3-[6-[5-[5-[4-[2-(2,6-dioxo-3-piperidyl)-1-oxo-isoindolin-5-yl]piperazin-1-yl]-5-oxo-pentyl]-1,2,4-oxadiazol-3-yl]-5-methyl-3-pyridyl]urea]	> 5000
	≤ 0.2	O=C1CCC(N2Cc3cc(N4CCN(C(=O)CCCCCc5nc(-c6ncc(NC(=O)Nc7cnc8ccnn8c7C7CCC7)cc6Cl)no5)CC4)ccc3C2=O)C(=O)N1 (stereo not drawn) [Compound 116, 1-[5-chloro-6-[5-[6-[4-[2-(2,6-dioxo-3-piperidyl)-1-oxo-isoindolin-5-yl]piperazin-1-yl]-6-oxo-hexyl]-1,2,4-oxadiazol-3-yl]-3-pyridyl]-3-(7-cyclobutylpyrazolo[1,5-a]pyrimidin-6-yl)urea]	< 500
	≤ 0.2	O=C1CCC(N2Cc3cc(N4CCN(C(=O)CCCCCc5nc(-c6ncc(NC(=O)Nc7cnc8ccnn8c7C7CCCCC7)cc6Cl)no5)CC4)ccc3C2=O)C(=O)N1 (stereo not drawn) [Compound 118, 1-[5-chloro-6-[5-[6-[4-[2-(2,6-dioxo-3-piperidyl)-1-oxo-isoindolin-5-yl]piperazin-1-yl]-6-oxo-hexyl]-1,2,4-oxadiazol-3-yl]-3-pyridyl]-3-(7-cyclohexylpyrazolo[1,5-a]pyrimidin-6-yl)urea]	< 500
	≤ 0.2	O=C1CCC(N2Cc3cc(N4CCN(CCCCCCc5nc(-c6ncc(NC(=O)Nc7cnc8ccnn8c7C7CCCCC7)cc6Cl)no5)CC4)ccc3C2=O)C(=O)N1 (stereo not drawn) [Compound 119, 1-[5-chloro-6-[5-[6-[4-[2-(2,6-dioxo-3-piperidyl)-1-oxo-isoindolin-5-yl]piperazin-1-yl]hexyl]-1,2,4-oxadiazol-3-yl]-3-pyridyl]-3-(7-cyclohexylpyrazolo[1,5-a]pyrimidin-6-yl)urea]	< 500
	≤ 0.2	O=C1CCC(N2Cc3cc(N4CCN(C(=O)CCCc5nc(-c6ncc(NC(=O)Nc7cnc8ccnn8c7C7CCCCC7)cc6Cl)no5)CC4)ccc3C2=O)C(=O)N1 (stereo not drawn) [Compound 120, 1-[5-chloro-6-[5-[4-[4-[2-(2,6-dioxo-3-piperidyl)-1-oxo-isoindolin-5-yl]piperazin-1-yl]-4-oxo-butyl]-1,2,4-oxadiazol-3-yl]-3-pyridyl]-3-(7-cyclohexylpyrazolo[1,5-a]pyrimidin-6-yl)urea]	< 500
